According to ChEMBL document CHEMBL3132778, “Structureactivity relationships of tetrahydrocarbazole derivatives as antifungal lead compounds” (Medchemcomm, 2013):
Converted amounts (≈) assume the structure as drawn.

What was measured:
Nannizzia gypsea = assay: Antifungal activity against Microsporum gypseum by serial dilution method; format: functional
Aspergillus fumigatus = assay: Antifungal activity against Aspergillus fumigatus after 7 days by serial dilution method; format: functional; conditions: 168 h
Kluyveromyces marxianus = assay: Antifungal activity against Candida kefyr after 24 hrs by serial dilution method; format: functional
Trichophyton rubrum = assay: Antifungal activity against Trichophyton rubrum by serial dilution method; format: functional
Candida parapsilosis = assay: Antifungal activity against Candida parapsilosis after 24 hrs by serial dilution method; format: functional; conditions: Lodderomyces parapsilosis
Cryptococcus neoformans = assay: Antifungal activity against Cryptococcus neoformans after 72 hrs by serial dilution method; format: functional
Candida tropicalis = assay: Antifungal activity against Candida tropicalis after 24 hrs by serial dilution method; format: functional
Candida albicans = assay: Antifungal activity against Candida albicans after 24 hrs by serial dilution method; format: functional
[1] = Inhibition of Saccharomyces cerevisiae NMT

SMILES	MIC80 (Nannizzia gypsea) [µg/mL]	MIC80 (Aspergillus fumigatus) [µg/mL]	MIC80 (Kluyveromyces marxianus) [µg/mL]	MIC80 (Trichophyton rubrum) [µg/mL]	MIC80 (Candida parapsilosis) [µg/mL]	MIC80 (Cryptococcus neoformans) [µg/mL]	MIC80 (Candida tropicalis) [µg/mL]	MIC80 (Candida albicans) [µg/mL]	IC50 [1] [nM]
Cc1ccc2c(c1)c1c(n2C[C@@H](O)CNC2CCCCC2)CCCC1	16 (≈ 47 µM)	64 (≈ 188 µM)	64 (≈ 188 µM)	16 (≈ 47 µM)	16 (≈ 47 µM)	16 (≈ 47 µM)	64 (≈ 188 µM)	64 (≈ 188 µM)	24
Cc1ccc2c(c1)c1c(n2CCCNCc2ccccc2F)CCCC1		16 (≈ 45.7 µM)	16 (≈ 45.7 µM)	64 (≈ 183 µM)	> 64	> 64	32 (≈ 91.3 µM)	> 64	
Cc1ccc2c(c1)c1c(n2CC(O)CNc2ccccc2)CCCC1 (stereo unspecified)	1 (≈ 2.99 µM)	> 64				> 64		> 64	
Cc1ccc2c(c1)c1c(n2CC(O)CNCc2ccccc2)CCCC1 (stereo unspecified)	16 (≈ 45.9 µM)	64 (≈ 184 µM)	64 (≈ 184 µM)	16 (≈ 45.9 µM)	64 (≈ 184 µM)	4 (≈ 11.5 µM)	64 (≈ 184 µM)	16 (≈ 45.9 µM)	
Cc1ccc2c(c1)c1c(n2CC(O)CNCc2cccnc2)CCCC1 (stereo unspecified)	16 (≈ 45.8 µM)	64 (≈ 183 µM)				64 (≈ 183 µM)		> 64	
Cc1ccc2c(c1)c1c(n2CCCNC2CCCCC2)CCCC1	4 (≈ 12.3 µM)	> 64				> 64		> 64	
Cc1ccc2c(c1)c1c(n2CCCNc2ccccc2)CCCC1	0.0625 (≈ 0.196 µM)	16 (≈ 50.2 µM)	16 (≈ 50.2 µM)	16 (≈ 50.2 µM)	16 (≈ 50.2 µM)	16 (≈ 50.2 µM)	16 (≈ 50.2 µM)	64 (≈ 201 µM)	
Cc1ccc2c(c1)c1c(n2CCCNCc2ccccc2)CCCC1	0.0156 (≈ 0.0469 µM)	32 (≈ 96.2 µM)	32 (≈ 96.2 µM)	4 (≈ 12 µM)	16 (≈ 48.1 µM)	1 (≈ 3.01 µM)	32 (≈ 96.2 µM)	16 (≈ 48.1 µM)	
Cc1ccc2c(c1)c1c(n2CCCNCc2cccnc2)CCCC1	0.0625 (≈ 0.187 µM)	64 (≈ 192 µM)	16 (≈ 48 µM)	4 (≈ 12 µM)	64 (≈ 192 µM)	64 (≈ 192 µM)	16 (≈ 48 µM)	64 (≈ 192 µM)	
Cc1ccc2c(c1)c1c(n2CCCNCc2ccc(F)cc2)CCCC1		32 (≈ 91.3 µM)	16 (≈ 45.7 µM)	8 (≈ 22.8 µM)	32 (≈ 91.3 µM)	8 (≈ 22.8 µM)	8 (≈ 22.8 µM)	64 (≈ 183 µM)	
Cc1ccc2c(c1)c1c(n2CCCNCc2cccc(F)c2)CCCC1		> 64	> 64	64 (≈ 183 µM)	64 (≈ 183 µM)	64 (≈ 183 µM)	> 64	> 64	
Cc1ccc2c(c1)c1c(n2CCCNCc2ccc(Cl)cc2)CCCC1		16 (≈ 43.6 µM)	16 (≈ 43.6 µM)	> 64	32 (≈ 87.2 µM)	> 64	64 (≈ 174 µM)	> 64	
Cc1ccc2c(c1)c1c(n2CCCNCc2ccccc2Cl)CCCC1		> 64	> 64	> 64	> 64	> 64	> 64	> 64	
Cc1ccc2c(c1)c1c(n2CCCNCc2cccc(Cl)c2)CCCC1		> 64	64 (≈ 174 µM)	> 64	> 64	32 (≈ 87.2 µM)	> 64	> 64	
Cc1ccc(CNCCCn2c3c(c4cc(C)ccc42)CCCC3)cc1		32 (≈ 92.3 µM)	16 (≈ 46.2 µM)	8 (≈ 23.1 µM)	32 (≈ 92.3 µM)	8 (≈ 23.1 µM)	16 (≈ 46.2 µM)	32 (≈ 92.3 µM)	
COc1ccc(CNCCCn2c3c(c4cc(C)ccc42)CCCC3)cc1		16 (≈ 44.1 µM)	16 (≈ 44.1 µM)	8 (≈ 22.1 µM)	16 (≈ 44.1 µM)	16 (≈ 44.1 µM)	8 (≈ 22.1 µM)	32 (≈ 88.3 µM)	
Cc1ccc2c(c1)c1c(n2CCCNCc2ccc(Cl)cc2Cl)CCCC1		> 64	> 64	> 64	> 64	> 64	> 64	> 64	

SMILES	MIC80 (Nannizzia gypsea) [µg/mL]	MIC80 (Aspergillus fumigatus) [µg/mL]	MIC80 (Kluyveromyces marxianus) [µg/mL]	MIC80 (Trichophyton rubrum) [µg/mL]	MIC80 (Candida parapsilosis) [µg/mL]	MIC80 (Cryptococcus neoformans) [µg/mL]	MIC80 (Candida tropicalis) [µg/mL]	MIC80 (Candida albicans) [µg/mL]	IC50 [1] [nM]
CCOC(=O)c1ccc2c(c1)c1c(n2CCCNCc2ccccc2)CCCC1		> 64	> 64		> 64	> 64	> 64	> 64	
OCc1ccc2c(c1)c1c(n2CCCNCc2ccccc2)CCCC1		> 64	> 64		> 64	> 64	> 64	> 64	
O=C(OCc1ccc2c(c1)c1c(n2CCCNCc2ccccc2)CCCC1)c1ccccc1		> 64	> 64		> 64	> 64	> 64	> 64	
c1ccc(CNCCCn2c3c(c4cc(CNc5ccccc5)ccc42)CCCC3)cc1		> 64	> 64		> 64	> 64	> 64	32 (≈ 75.5 µM)	
O=C(Oc1ccccc1)c1ccc2c(c1)c1c(n2CCCNCc2ccccc2)CCCC1		64 (≈ 146 µM)	> 64		> 64	> 64	> 64	64 (≈ 146 µM)	
O=C(OC1CCNCC1)c1ccc2c(c1)c1c(n2CCCNCc2ccccc2)CCCC1		> 64	64 (≈ 144 µM)		32 (≈ 71.8 µM)	32 (≈ 71.8 µM)	8 (≈ 18 µM)	32 (≈ 71.8 µM)	
CN1CCC(OC(=O)c2ccc3c(c2)c2c(n3CCCNCc3ccccc3)CCCC2)CC1		32 (≈ 69.6 µM)	32 (≈ 69.6 µM)		64 (≈ 139 µM)	16 (≈ 34.8 µM)	32 (≈ 69.6 µM)	32 (≈ 69.6 µM)	
O=C(Nc1ccccc1)c1ccc2c(c1)c1c(n2CCCNCc2ccccc2)CCCC1		> 64	> 64		> 64	64 (≈ 146 µM)	> 64	32 (≈ 73.1 µM)	
O=C(Nc1ccc(Br)cc1)c1ccc2c(c1)c1c(n2CCCNCc2ccccc2)CCCC1		64 (≈ 124 µM)	> 64		> 64	16 (≈ 31 µM)	> 64	32 (≈ 62 µM)	
O=C(NCc1ccccc1)c1ccc2c(c1)c1c(n2CCCNCc2ccccc2)CCCC1		> 64	> 64		> 64	64 (≈ 142 µM)	> 64	> 64	
O=C(OC1CCCCC1)c1ccc2c(c1)c1c(n2CCCNCc2ccccc2)CCCC1		> 64	> 64		> 64	> 64	> 64	64 (≈ 144 µM)	
O=C(c1ccc2c(c1)c1c(n2CCCNCc2ccccc2)CCCC1)c1ccccn1		> 64	> 64		> 64	64 (≈ 151 µM)	> 64	64 (≈ 151 µM)	
Cc1ccc(C(=O)c2ccc3c(c2)c2c(n3CCCNCc3ccccc3)CCCC2)nc1		> 64	> 64		> 64	> 64	> 64	64 (≈ 146 µM)	
O=C(c1ccc2c(c1)c1c(n2CCCNCc2ccccc2)CCCC1)c1nccs1		> 64	> 64		> 64	> 64	> 64	32 (≈ 74.5 µM)	
Cc1c(C(=O)c2ccccn2)oc2cccc(OCCCNCc3cccnc3)c12	> 64	> 64	4 (≈ 9.96 µM)	64 (≈ 159 µM)	4 (≈ 9.96 µM)	> 64	8 (≈ 19.9 µM)	4 (≈ 9.96 µM)	
OC(Cn1cncn1)(Cn1cncn1)c1ccc(F)cc1F [FLUCONAZOLE]	1 (≈ 3.27 µM)	> 64	4 (≈ 13.1 µM)	1 (≈ 3.27 µM)	4 (≈ 13.1 µM)	1 (≈ 3.27 µM)	2 (≈ 6.53 µM)	0.5 (≈ 1.63 µM)	
